Experimental data as given in ChEMBL document CHEMBL1147493, “Small molecule biaryl FSH receptor agonists. Part 2: Lead optimization via parallel synthesis” (Bioorg Med Chem Lett, 2004).
Several values for one entry are separate records, joined by “and”; a condition that tells them apart may be missing. Identical values can stand only once.

The molecules below were run against T1, Follicle-stimulating hormone receptor (Homo sapiens, UniProt P23945) (assay: Agonistic activity against human follicle stimulating hormone receptor in CHO-hFSHR-luciferase assay.).
T1 sequence (P23945 whole entry): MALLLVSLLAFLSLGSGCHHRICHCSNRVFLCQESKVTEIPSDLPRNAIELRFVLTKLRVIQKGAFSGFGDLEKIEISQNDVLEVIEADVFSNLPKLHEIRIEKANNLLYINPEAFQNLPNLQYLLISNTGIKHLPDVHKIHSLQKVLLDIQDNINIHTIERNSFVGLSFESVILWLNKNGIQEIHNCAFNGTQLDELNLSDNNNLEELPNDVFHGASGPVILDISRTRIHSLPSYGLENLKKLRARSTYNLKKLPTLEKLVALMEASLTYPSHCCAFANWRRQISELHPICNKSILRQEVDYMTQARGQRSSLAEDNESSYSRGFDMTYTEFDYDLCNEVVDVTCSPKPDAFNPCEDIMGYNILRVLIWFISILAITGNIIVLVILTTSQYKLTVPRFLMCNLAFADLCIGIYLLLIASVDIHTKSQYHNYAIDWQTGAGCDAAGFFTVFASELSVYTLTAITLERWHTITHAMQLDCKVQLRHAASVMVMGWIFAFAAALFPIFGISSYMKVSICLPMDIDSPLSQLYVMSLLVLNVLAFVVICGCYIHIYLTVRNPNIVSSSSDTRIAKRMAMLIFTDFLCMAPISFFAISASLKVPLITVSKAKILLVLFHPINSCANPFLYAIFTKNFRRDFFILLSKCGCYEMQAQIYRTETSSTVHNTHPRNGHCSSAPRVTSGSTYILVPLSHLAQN
Format: functional

Structure (SMILES) | EC50
CCCCCCN1C(=O)[C@H](Cc2ccc(-c3cccc(CN(CCCC)C(=O)OC)c3)cc2)N(C)C(=O)[C@@H]1C | 8.9 nM
CCCCCCNC(=O)CN1CC(=O)N(CC)[C@@H](Cc2ccc(-c3cc(OC)c(OC)c(OC)c3)cc2)C1=O | > 20000 nM
CCCCCCN1C(=O)[C@H](Cc2ccc(-c3cccc(CN(CCCC)C(=O)NC)c3)cc2)N(C)C(=O)[C@@H]1C | 7.2 nM
CCCCCNC(=O)CN1CC(=O)N(C)[C@@H](Cc2ccc(-c3cccc(CN(CCCC)C(=O)NC)c3)cc2)C1=O | 1.7 nM
CCCCCCCCN1CC(=O)N(C)[C@@H](Cc2ccc(-c3cc(C)c(OC)c(C)c3)cc2)C1=O | 1200 nM
CCCCCCNC(=O)CN1CC(=O)N[C@@H](Cc2ccc(-c3cc(OC)c(OC)c(OC)c3)cc2)C1=O | > 20000 nM
CCCCCCCCN1C(=O)[C@H](Cc2ccc(-c3cccc(CN(CCCC)C(=O)OC)c3)cc2)N(C)C(=O)[C@@H]1C | 2.7 nM
CCCCCCNC(=O)CN1CC(=O)N(CCC)[C@@H](Cc2ccc(-c3cc(OC)c(OC)c(OC)c3)cc2)C1=O | > 20000 nM
CCCCCCCCN1CC(=O)N(C)[C@@H](Cc2ccc(-c3ccc(OC)c(OC)c3)cc2)C1=O | 3300 nM
CCCCCCN1C(=O)[C@H](Cc2ccc(-c3cccc(CN(CCCC)C(C)=O)c3)cc2)N(C)C(=O)[C@@H]1C | 150 nM
CCCCCCCCN1C(=O)[C@H](Cc2ccc(-c3cccc(CN(COC)C(=O)OC)c3)cc2)N(C)C(=O)[C@@H]1C | 1.8 nM
CCCCCN1CC(=O)N(C)[C@@H](Cc2ccc(-c3cc(OC)c(OC)c(OC)c3)cc2)C1=O | 9000 nM
CCCCCCCCN1C(=O)[C@H](Cc2ccc(-c3cccc(CN(CCCC)C(C)=O)c3)cc2)N(C)C(=O)[C@@H]1C | 14 nM
CCCCCCN1CC(=O)N(C)[C@H](Cc2ccc(-c3cc(OC)c(OC)c(OC)c3)cc2)C1=O | > 50000 nM
CCCCCCCCN1C(=O)[C@H](Cc2ccc(-c3cccc(CN(CCCC)C(=O)NC)c3)cc2)N(C)C(=O)[C@@H]1C | 1.2 nM
CCCCCCNC(=O)CN1CC(=O)N(C)[C@@H](Cc2ccc(-c3cc(OC)c(OC)c(OC)c3)cc2)C1=O | 3 nM
CCCCCCCCN1CC(=O)N(C)[C@@H](Cc2ccc(-c3cc(OC)cc(OC)c3)cc2)C1=O | 5000 nM
CCCCCCCCN1C(=O)[C@H](Cc2ccc(-c3cccc(CN(COC)C(=O)NC)c3)cc2)N(C)C(=O)[C@@H]1C | 3.6 nM
CCCCCCCCN1C(=O)[C@H](Cc2ccc(-c3cccc(CN(COC)C(C)=O)c3)cc2)N(C)C(=O)[C@@H]1C | 9.7 nM

The next lines start with the values.

EC50 | Structure (SMILES)
13 nM | CCCCCCCCN1C(=O)[C@H](Cc2ccc(-c3cc(OC)c(OC)c(OC)c3)cc2)N(C)C(=O)[C@@H]1C
100 nM | CCCCCCN1C(=O)[C@H](Cc2ccc(-c3cc(OC)c(OC)c(OC)c3)cc2)N(C)C(=O)[C@@H]1C
25 nM | CCCCCCCN1C(=O)[C@H](Cc2ccc(-c3cc(OC)c(OC)c(OC)c3)cc2)N(C)C(=O)[C@@H]1C
2300 nM | CCCCCCCN1CC(=O)N(C)[C@@H](Cc2ccc(-c3cc(OC)c(OC)c(OC)c3)cc2)C1=O
900 nM | CCCCCCCCCN1CC(=O)N(C)[C@@H](Cc2ccc(-c3cc(OC)c(OC)c(OC)c3)cc2)C1=O
120 nM | CCCCCCCCN1C(=O)[C@H](Cc2ccc(-c3cc(OC)c(OC)c(OC)c3)cc2)N(C)C(=O)[C@H]1C
400 nM | CCCCCCCCN1CC(=O)N(C)[C@@H](Cc2ccc(-c3cc(OC)c(OC)c(OC)c3)cc2)C1=O
68 nM | CCCCCCCCN1C(=O)[C@@H](Cc2ccc(-c3cc(OC)c(OC)c(OC)c3)cc2)N(C)C(=O)[C@@H]1C
1600 nM | CCCCCCCCN1C(=O)[C@@H](Cc2ccc(-c3cc(OC)c(OC)c(OC)c3)cc2)N(C)C(=O)[C@H]1C
3000 nM | CCCCCCN1CC(=O)N(C)[C@@H](Cc2ccc(-c3cc(OC)c(OC)c(OC)c3)cc2)C1=O

Each molecule was assayed against T1, Follicle-stimulating hormone receptor (assay: Agonistic activity in CHO-hFSHR cell-based cAMP accumulation assay).
Format: functional

EC50 | Structure (SMILES)
48 nM and 59 nM | CCCCCCN1C(=O)[C@H](Cc2ccc(-c3cccc(CN(CCCC)C(=O)OC)c3)cc2)N(C)C(=O)[C@@H]1C
32 nM | CCCCCCCCN1C(=O)[C@H](Cc2ccc(-c3cc(OC)c(OC)c(OC)c3)cc2)N(C)C(=O)[C@@H]1C
9.5 nM | CCCCCCN1C(=O)[C@H](Cc2ccc(-c3cccc(CN(CCCC)C(=O)NC)c3)cc2)N(C)C(=O)[C@@H]1C
31 nM | CCCCCCCCN1C(=O)[C@H](Cc2ccc(-c3cccc(CN(CCCC)C(=O)OC)c3)cc2)N(C)C(=O)[C@@H]1C
35 nM | CCCCCCCCN1C(=O)[C@H](Cc2ccc(-c3cccc(CN(CCCC)C(C)=O)c3)cc2)N(C)C(=O)[C@@H]1C
7.9 nM | CCCCCCCCN1C(=O)[C@H](Cc2ccc(-c3cccc(CN(CCCC)C(=O)NC)c3)cc2)N(C)C(=O)[C@@H]1C

These molecules were tested against T1, Follicle-stimulating hormone receptor (assay: Agonistic activity in CHO-hFollicle stimulating hormone receptor cell-based cAMP accumulation assay).
Format: functional

EC50 | Structure (SMILES)
32 nM | CCCCCCCN1C(=O)[C@H](Cc2ccc(-c3cc(OC)c(OC)c(OC)c3)cc2)N(C)C(=O)[C@@H]1C

What follows are molecules tested against T2, Follicle-stimulating hormone receptor (Homo sapiens) (UniProt P23945) (assay: Agonistic efficacy in CHO-hFSHR cell-based cAMP accumulation assay relative to FSH(=100%)).
T2 sequence (whole entry): T1 sequence (P23945 whole entry)
Format: functional

Structure (SMILES) | Efficacy
CCCCCCN1C(=O)[C@H](Cc2ccc(-c3cccc(CN(CCCC)C(=O)NC)c3)cc2)N(C)C(=O)[C@@H]1C | 85%
CCCCCCCCN1C(=O)[C@H](Cc2ccc(-c3cccc(CN(CCCC)C(=O)OC)c3)cc2)N(C)C(=O)[C@@H]1C | 49%
CCCCCCCCN1C(=O)[C@H](Cc2ccc(-c3cccc(CN(CCCC)C(C)=O)c3)cc2)N(C)C(=O)[C@@H]1C | 57%
CCCCCCCCN1C(=O)[C@H](Cc2ccc(-c3cccc(CN(CCCC)C(=O)NC)c3)cc2)N(C)C(=O)[C@@H]1C | 72%

Next, values leading:

Efficacy | Structure (SMILES)
47% | CCCCCCCCN1C(=O)[C@H](Cc2ccc(-c3cc(OC)c(OC)c(OC)c3)cc2)N(C)C(=O)[C@@H]1C
54% | CCCCCCCN1C(=O)[C@H](Cc2ccc(-c3cc(OC)c(OC)c(OC)c3)cc2)N(C)C(=O)[C@@H]1C
